Results reported in patent US8686165B2, “Process for preparation of taxane derivatives” (Emcure Pharmaceuticals Limited, priority 2009, dated 2014).
Structures can show the parent of a compound that is named as a salt. Where two headings read alike, the source gives them in different places.

What was measured:
[1] = Comparative stability profile of docetaxel in solution at 35° C. with and without aluminum sulphate; assay type: physicochemical; details: for Epi-Docetaxel / Docetaxel: solution at 35° C., trihydrate; for Epi-Docetaxel: 360 min (6 hours); for Docetaxel: 360 min
Method: The docetaxel solution prepared according to present invention had 0.19% of epi-docetaxel after 6 hours.

[2] = as above; assay type: physicochemical
[3] = assay type: physicochemical; details: 25 ± 2° C./60 ± 5% RH

CC(=O)O[C@@]12CO[C@@H]1C[C@H](O)[C@@]1(C)C(=O)[C@H](O)C3=C(C)[C@@H](OC(=O)[C@H](O)[C@@H](NC(=O)OC(C)(C)C)c4ccccc4)C[C@@](O)([C@@H](OC(=O)c4ccccc4)[C@H]21)C3(C)C.O.O.O [Example 1, Docetaxel trihydrate]
reduction in formation of the epi-isomer degradation product ([1]; compared to a solution prepared without addition of a metal salt): almost a five-fold reduction | Epi-Docetaxel [1]: 0.19% | Docetaxel [1]: 99.38% | Docetaxel ([2]; 30 min, trihydrate): 99.62% | Epi-Docetaxel ([2]; 30 min, trihydrate): 0.11% | Docetaxel ([2]; 60 min, trihydrate): 99.50% | Epi-Docetaxel ([2]; 60 min, trihydrate): 0.12% | Epi-Docetaxel ([2]; 360 min (6 hours), listed as docetaxel solution prepared according to present invention, trihydrate): 0.19% | Docetaxel ([2]; Initial): 99.68% | Epi-Docetaxel ([2]; Initial): 0.11%

CC(=O)O[C@@]12CO[C@@H]1C[C@H](O)[C@@]1(C)C(=O)[C@H](O)C3=C(C)[C@@H](OC(=O)[C@H](O)[C@@H](NC(=O)OC(C)(C)C)c4ccccc4)C[C@@](O)([C@@H](OC(=O)c4ccccc4)[C@H]21)C3(C)C.O.O.O [Example 2, Docetaxel trihydrate]
7-Epi-docetaxel ([3]; 1 Month): 0.022% | 10-Deacetyl baccatin III ([3]; 1 Month): 0.01% | Any individual unspecified unidentified impurity ([3]; 1 Month): 0.076% | Total impurities ([3]; 1 Month, listed as docetaxel preparing by a process of the present invention, trihydrate): 0.27% | Total impurities ([3]; 1 Month, trihydrate): 0.27% | 7-Epi-docetaxel ([3]; 2 Month): 0.044% | 10-Deacetyl baccatin III ([3]; 2 Month): 0.01% | Any individual unspecified unidentified impurity ([3]; 2 Month): 0.083% | Total impurities ([3]; 2 Month): 0.27% | 7-Epi-docetaxel ([3]; Initial): 0.02% | Any individual unspecified unidentified impurity ([3]; Initial): 0.07% | Total impurities ([3]; Initial): 0.25%

CC(=O)O[C@@]12CO[C@@H]1C[C@H](O)[C@@]1(C)C(=O)[C@H](O)C3=C(C)[C@@H](OC(=O)[C@H](O)[C@@H](NC(=O)OC(C)(C)C)c4ccccc4)C[C@@](O)([C@@H](OC(=O)c4ccccc4)[C@H]21)C3(C)C.O.O.O [Example 6, Docetaxel trihydrate]
Epi-Docetaxel [1]: 0.86% | Docetaxel [1]: 98.81% | Docetaxel ([2]; 30 min, trihydrate): 99.51% | Epi-Docetaxel ([2]; 30 min, trihydrate): 0.23% | Docetaxel ([2]; 60 min, trihydrate): 98.95% | Epi-Docetaxel ([2]; 60 min, trihydrate): 0.34% | Epi-Docetaxel ([2]; 360 min (6 hours), listed as docetaxel solution prepared without using aluminum sulfate, trihydrate): 0.86% | Docetaxel ([2]; Initial): 99.68% | Epi-Docetaxel ([2]; Initial): 0.11%

CC(=O)O[C@@]12CO[C@@H]1C[C@H](O)[C@@]1(C)C(=O)[C@H](O)C3=C(C)[C@@H](OC(=O)[C@H](O)[C@@H](NC(=O)OC(C)(C)C)c4ccccc4)C[C@@](O)([C@@H](OC(=O)c4ccccc4)[C@H]21)C3(C)C [Without potassium aluminum sulfate, docetaxel]
7-Epi-10-deacetyl baccatin III ([3]; 1 Month): 0.08% | 7-Epi-10-oxo-10-deacetyl baccatin III ([3]; 1 Month): 0.01% | 7-Epi-10-oxo-Docetaxel ([3]; 1 Month): 0.01% | 7-Epi-docetaxel ([3]; 1 Month): 0.18% | 10-Deacetyl baccatin III ([3]; 1 Month): 0.07% | Any individual unspecified unidentified impurity ([3]; 1 Month): 0.07% | Total impurities ([3]; 1 Month): 0.58% | Total impurities ([3]; 1 Month, listed as docetaxel prepared without using potassium aluminum sulfate): 0.58%
